# Test results as given in patent US20080112899A1, “Carboxamides and Their Use” (priority 2004, published 2008).
# Test system: trained panel of 4 to 8 people
# Experiment: Cooling intensity by isointensity method, trained panel tasting aqueous solutions versus WS 23
# Type: in vivo, human
# Settings: aqueous solutions tasted, compared to aqueous solution of reference WS 23 at 2 ppm
# Method: The cooling intensity of the compounds was determined by a trained panel of 4 to 8 people according to the isointensity method as described below.
# Aqueous solutions of various concentrations of a chemical compound are prepared and tasted. The cooling intensity of each solution was compared to that of an aqueous solution of the reference compound at 2 ppm, namely N,2,3-trimethyl-2-isopropylbutanamde (WS 23).
row,SMILES,rel. cooling intensity
1,"CC(C)C(C(=O)Nc1ccc(C#N)cc1)C(C)C [Ex. 1, N-(4-cyanophenyl) 2-isopropylisovaleramide]",1.3
2,"CC(C)C(C)(C(=O)Nc1ccc(C#N)cc1)C(C)C [Ex. 2A, N-(4-Cyanophenyl)2-methyl-2-isopropylisovaleramide]",1.5
3,"COc1ccc(NC(=O)C(C)(C(C)C)C(C)C)cc1 [Ex. 2B, N-(4-Methoxyphenyl)2-methyl-2-isopropylisovaleramide]",1.1
4,"CC(C)C(C)(C(=O)Nc1ccc(CC#N)cc1)C(C)C [Ex. 2C, N-(4-Cyanomethyl-phenyl)-2-methyl-2-isopropyl-isovaleramide]",0.2
5,"COc1ccc(NC(=O)C(C(C)C)C(C)C)cc1 [Ex. 2E, N-(4-Methoxyphenyl)2-isopropylisovaleramide]",1.1
6,"CC(C)C(C(=O)Nc1ccccc1C#N)C(C)C [Ex. 2F, N-(2-Cyanophenyl)2-isopropylisovaleramide]",1.7
7,COc1ccc(NC(=O)C(C)(C(C)C)C(C)C)c(OC)c1 [Ex. 2G],0.9
8,"CC(C)C(C)(C(=O)Nc1ccc2c(c1)OCO2)C(C)C [Ex. 2H, N-Benzo[1,3]dioxol-5-yl 2-methyl-2-isopropylisovaleramide]",0.9
9,"COc1cc(CNC(=O)C(C)(C(C)C)C(C)C)ccc1O [Ex. 2I, N-Vanillyl 2-methyl-2-isopropylisovaleramide]",0.8
